Among the data in US20230086702A1, “SUBSTITUTED 2-AMINO-PYRAZOLYL-[1,2,4]TRIAZOLO[1,5A]PYRIDINE DERIVATIVES AND USE THEREOF” (The Johns Hopkins University, priority 2019, published 2023) are IC50 values, retold here.

In one test the target is T1, DLK (Homo sapiens, UniProt Q12852).
T1 construct: 10 nM DLK, catalytic domain, Carna Biosiences; purchased Carna Biosciences ('Carna Biosiences' [sic])
T1 sequence (Q12852 125-366 limits assumed): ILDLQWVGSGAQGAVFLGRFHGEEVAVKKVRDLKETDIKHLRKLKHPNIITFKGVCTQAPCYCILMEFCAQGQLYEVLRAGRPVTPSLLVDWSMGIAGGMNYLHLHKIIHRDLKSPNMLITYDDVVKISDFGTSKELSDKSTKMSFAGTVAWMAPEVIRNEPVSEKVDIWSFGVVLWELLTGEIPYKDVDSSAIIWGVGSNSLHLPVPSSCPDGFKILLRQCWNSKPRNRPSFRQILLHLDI
The experiment in a line: DLK biochemical assay (TR-FRET, MKK7 phosphorylation). Conditions: DLK catalytic domain, MKK7 substrate, 60 μM ATP. An outline of the steps: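 TR-FRET read-out (ratio of 665 nm acceptor to Eu donor channel) tracks MKK7 T275/S277 phosphorylation by DLK, using Eu-labelled anti-phospho-MKK7 and XL665-labelled anti-His on His-MKK7. Reactions were stopped and detected in pH 7.5 Tris buffer containing 100 mM EDTA, 100 mM NaCl, 200 mM KF and 0.01% Tween 20.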

The next test has as its target T2, LZK (Homo sapiens, UniProt O43283).
T2 construct: 10 nM LZK, catalytic domain, Carna Biosiences in assay buffer; purchased Carna Biosciences ('Carna Biosiences' [sic])
T2 sequence (O43283 168-409 limits assumed): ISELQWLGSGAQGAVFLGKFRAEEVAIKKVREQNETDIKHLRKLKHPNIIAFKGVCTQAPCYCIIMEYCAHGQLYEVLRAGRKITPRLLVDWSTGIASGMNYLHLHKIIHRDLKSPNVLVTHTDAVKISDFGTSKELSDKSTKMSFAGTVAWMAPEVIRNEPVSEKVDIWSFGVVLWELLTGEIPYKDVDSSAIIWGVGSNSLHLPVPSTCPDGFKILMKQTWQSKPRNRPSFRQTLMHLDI
The experiment in a line: LZK biochemical assay (TR-FRET, MKK7 phosphorylation). The following applies: LZK catalytic domain, MKK7 substrate, 15 μM ATP.

As to `CCC(c1ccc(C(F)(F)F)nc1)n1cc(-c2cc(C(=O)N[C@@H](C)CO)c3nc(N)nn3c2)cn1` (mixture of isomers) [Example I-151, 2-Amino-N-[(2S)-1-hydroxypropan-2-yl]-6-(1-{1-[6-(trifluoromethyl)pyridin-3-yl]propyl}-1H-pyrazol-4-yl)[1,2,4]triazolo[1,5-a]pyridine-8-carboxamide], the figures for the concentration for half-maximal inhibition (IC50) against DLK and at LZK were 6.9 nM and 9.8 nM, respectively.
In the same order, the values of `C[C@@H](CO)NC(=O)c1cc(-c2cnn(C(c3ccc(C(F)(F)F)nc3)C3CCOCC3)c2)cn2nc(N)nc12` (mixture of isomers) [Example I-154, 2-Amino-N-[(25)-1-hydroxypropan-2-yl]-6-(1-{tetrahydro-2H-pyran-4-yl[6-(trifluoromethyl)pyridin-3-yl]methyl}-1H-pyrazol-4-yl)[1,2,4]triazolo[1,5-a]pyridine-8-carboxamide] are 1.1 nM and 4.6 nM.
For `CCC(c1ccc(OC(F)(F)F)nc1)n1cc(-c2cc(C(=O)N[C@@H](C)CO)c3nc(N)nn3c2)cn1` (mixture of isomers) [Example I-157, 2-Amino-N-[(2S)-1-hydroxypropan-2-yl]-6-(1-{1-[6-(trifluoromethoxy)pyridin-3-yl]propyl}-1H-pyrazol-4-yl)[1,2,4]triazolo[1,5-a]pyridine-8-carboxamide] the same measures were 5.7 nM and 13 nM.
In the same order, the values of `CC(C)C(c1ccc(F)cc1)n1cc(-c2cc(C(=O)N[C@@H](C)CO)c3nc(N)nn3c2)cn1` (mixture of isomers) [Example I-160, 2-Amino-6-{1-[1-(4-fluorophenyl)-2-methylpropyl]-1H-pyrazol-4-yl}-N-[(2S)-1-hydroxypropan-2-yl][1,2,4]triazolo[1,5-a]pyridine-8-carboxamide] are 4.3 nM and 130 nM.
Regarding `CCC(c1ccc(C(F)(F)F)nc1)n1cc(-c2cc(C(=O)N[C@H]3CCOC3)n3nc(N)nc3c2)cn1` (mixture of isomers) [Example I-177, 2-Amino-N-[(3S)-tetrahydrofuran-3-yl]-7-(1-{1-[6-(trifluoromethyl)pyridin-3-yl]propyl}-1H-pyrazol-4-yl)[1,2,4]triazolo[1,5-a]pyridine-5-carboxamide], the half-inhibitory concentration (IC50) against DLK is 2.6 nM; at LZK, 18 nM.
As for `CC(C)C(c1ccc(C(F)(F)F)nc1)n1cc(-c2cc(C(=O)N[C@H]3CCOC3)n3nc(N)nc3c2)cn1` (mixture of isomers) [Example I-180, 2-Amino-7-(1-{2-methyl-1-[6-(trifluoromethyl)pyridin-3-yl]propyl}-1H-pyrazol-4-yl)-N-[(3S)-tetrahydrofuran-3-yl][1,2,4]triazolo[1,5-a]pyridine-5-carboxamide], the IC50 on DLK amounted to 1.6 nM; on LZK, 6.1 nM.
For `Nc1nc2cc(-c3cnn(C(c4ccc(C(F)(F)F)nc4)C4CCOCC4)c3)cc(C(=O)N[C@H]3CCOC3)n2n1` (mixture of isomers) [Example I-183, 2-Amino-N-[(3S)-tetrahydrofuran-3-yl]-7-(1-{tetrahydro-2H-pyran-4-yl[6-(trifluoromethyl)pyridin-3-yl]methyl}-1H-pyrazol-4-yl)[1,2,4]triazolo[1,5-a]pyridine-5-carboxamide] the same measures were 1.7 nM and 6 nM.
For `CCC(c1ccc(OCC(F)(F)F)nc1)n1cc(-c2cc(C(=O)N[C@H]3CCOC3)n3nc(N)nc3c2)cn1` (mixture of isomers) [Example I-186] the same measures were 6.2 nM and 16 nM.
In the same order, the values of `Nc1nc2c(C(=O)NC3CNC(=O)C3)cc(-c3cnn(Cc4ccc(F)cc4)c3)cn2n1` (racemic) [Example I-136, 2-Amino-6-[1-(4-fluorobenzyl)-1H-pyrazol-4-yl]-N-(5-oxopyrrolidin-3-yl)[1,2,4]triazolo[1,5-a]pyridine-8-carboxamide] are 23 nM and 210 nM.
Turning to `CC(CF)NC(=O)c1cc(-c2cnn(CC3CC3)c2)cn2nc(N)nc12` (racemic) [Example I-137, 2-Amino-6-[1-(cyclopropylmethyl)-1H-pyrazol-4-yl]-N-[1-fluoropropan-2-yl][1,2,4]triazolo[1,5-a]pyridine-8-carboxamide], the half-inhibitory concentration (IC50) against DLK turned out to be 140 nM; against LZK it was 150 nM.
With `CC(CF)NC(=O)c1cc(-c2cnn(Cc3cccc4cn[nH]c34)c2)cn2nc(N)nc12` (racemic) [Example I-138, 2-Amino-N-(1-fluoropropan-2-yl)-6-{1-[(1H-indazol-7-yl)methyl]-1H-pyrazol-4-yl} [1,2,4]triazolo[1,5-a]pyridine-8-carboxamide], the IC50 against DLK was found to be 3 nM; against LZK, 190 nM.
In the same order, the values of `CCC(c1ccc(C(F)(F)F)nc1)n1cc(-c2cc(C(=O)NC(C)(C)CO)c3nc(N)nn3c2)cn1` (racemic) [Example I-163, 2-Amino-N-(1-hydroxy-2-methylpropan-2-yl)-6-(1-{1-[6-(trifluoromethyl)pyridin-3-yl]propyl}-1H-pyrazol-4-yl)[1,2,4]triazolo[1,5-a]pyridine-8-carboxamide] are 7.6 nM and 30 nM.
As for `CC(C)(CO)NC(=O)c1cc(-c2cnn(C(c3ccc(C(F)(F)F)nc3)C3CCOCC3)c2)cn2nc(N)nc12` (racemic) [Example I-166, 2-Amino-N-(1-hydroxy-2-methylpropan-2-yl)-6-(1-{tetrahydro-2H-pyran-4-yl[6-(trifluoromethyl)pyridin-3-yl]methyl}-1H-pyrazol-4-yl)[1,2,4]triazolo[1,5-a]pyridine-8-carboxamide], the IC50 at DLK stood at 4.2 nM; against LZK, 20 nM.
In the same order, the values of `CCC(c1ccc(OC(F)(F)F)nc1)n1cc(-c2cc(C(=O)NC(C)(C)CO)c3nc(N)nn3c2)cn1` (racemic) [Example I-169, 2-Amino-N-(1-hydroxy-2-methylpropan-2-yl)-6-(1-{1-[6-(trifluoromethoxy)pyridin-3-yl]propyl}-1H-pyrazol-4-yl)[1,2,4]triazolo[1,5-a]pyridine-8-carboxamide] are 26 nM and 71 nM.
For `CC(C)C(c1cncc(Cl)c1)n1cc(-c2cc(C(=O)NC(C)(C)CO)c3nc(N)nn3c2)cn1` (racemic) [Example I-172, 2-Amino-6-{1-[1-(5-chloropyridin-3-yl)-2-methylpropyl]-1H-pyrazol-4-yl}-N-(1-hydroxy-2-methylpropan-2-yl)[1,2,4]triazolo[1,5-a]pyridine-8-carboxamide] the same measures were 4 nM and 76 nM.
In the same order, the values of `CC[C@H](C)NC(=O)c1cc(-c2cnn(C3CCN(CC)CC3)c2)cn2nc(N)nc12` (single isomer, unassigned) [Example I-6] are 17 nM and 6.7 nM.
As to `CC[C@H](C)NC(=O)c1cc(-c2cnn(C3CCN(C(C)C)CC3)c2)cn2nc(N)nc12` (single isomer, unassigned) [Example I-7], the IC50 on DLK came out at 32 nM; against LZK, 3.8 nM.
Regarding `CC[C@H](C)NC(=O)c1cc(-c2cnn(C3CCN(C4COC4)CC3)c2)cn2nc(N)nc12` (single isomer, unassigned) [Example I-8], the IC50 on DLK was determined as 68 nM; on LZK it was 9.4 nM.
In the same order, the values of `CC[C@H](C)NC(=O)c1cc(-c2cnn(C3CCN(CC4COC4)CC3)c2)cn2nc(N)nc12` (single isomer, unassigned) [Example I-9] are 80 nM and 6.9 nM.
In the same order, the values of `CC[C@H](C)NC(=O)c1cc(-c2cnn(C3CCN(Cc4ccccc4)CC3)c2)cn2nc(N)nc12` (single isomer, unassigned) [Example I-10] are 24 nM and 9 nM.
In the same order, the values of `CC[C@H](C)NC(=O)c1cc(-c2cnn(C3CCN(C(C)=O)CC3)c2)cn2nc(N)nc12` (single isomer, unassigned) [Example I-11] are 82 nM and 14 nM.
For the compound `CC[C@H](C)NC(=O)c1cc(-c2cnn(C3CCCC3)c2)cc2nc(N)nn12` (single isomer, unassigned) [Example I-12], the 50% inhibitory concentration (IC50) against DLK worked out at 120 nM; against LZK, 70 nM.
For `CC[C@H](C)NC(=O)c1cc(-c2cnn(C3CCc4ccccc43)c2)cn2nc(N)nc12` (single isomer, unassigned) [Example I-14] the same measures were 12 nM and 4.7 nM.
For `CC[C@H](C)NC(=O)c1cc(-c2cnn(C3CCc4ccccc43)c2)cn2nc(N)nc12` (single isomer, unassigned) [Example I-15] the same measures were 31 nM and 7.8 nM.
Take `CC[C@H](C)NC(=O)c1cc(-c2cnn(C3CCOc4ccccc43)c2)cc2nc(N)nn12` (single isomer, unassigned) [Example I-17]: the results for the half-maximal inhibitory concentration (IC50) against DLK and on LZK were 22 nM and 4.7 nM, respectively.
